≈ marks a conversion by molar mass, not a printed value. Like-named read-outs stand apart in the source and are kept apart here. Starred links: 1 amine or outer side, 2 acyl side, 3 side chain; linkers in the order of their positions; H or OH if unused. Positions of bridges follow the written chain, without caps; N, C: chain ends. Residues, ends and D or L forms follow the SMILES beside them. *: point of attachment. C20 diacid = O=C(O)CCCCCCCCCCCCCCCCCCC(=O)*; γGlu = O=C(O)[C@H](CCC(=O)[*:2])N[*:1]
Columns and labels:
[1] = biological target: T1, human amylin receptor (amylin 3(a) receptor: human calcitonin receptor + RAMP-3) (Homo sapiens, UniProt O60896+P30988); assay: Assay (II)a functional CRE-luciferase assay, human amylin receptor; format: cell-based
T1 construct: expressed in transfected cells; host or cells: BHK570
T1 sequence (P30988 25-474): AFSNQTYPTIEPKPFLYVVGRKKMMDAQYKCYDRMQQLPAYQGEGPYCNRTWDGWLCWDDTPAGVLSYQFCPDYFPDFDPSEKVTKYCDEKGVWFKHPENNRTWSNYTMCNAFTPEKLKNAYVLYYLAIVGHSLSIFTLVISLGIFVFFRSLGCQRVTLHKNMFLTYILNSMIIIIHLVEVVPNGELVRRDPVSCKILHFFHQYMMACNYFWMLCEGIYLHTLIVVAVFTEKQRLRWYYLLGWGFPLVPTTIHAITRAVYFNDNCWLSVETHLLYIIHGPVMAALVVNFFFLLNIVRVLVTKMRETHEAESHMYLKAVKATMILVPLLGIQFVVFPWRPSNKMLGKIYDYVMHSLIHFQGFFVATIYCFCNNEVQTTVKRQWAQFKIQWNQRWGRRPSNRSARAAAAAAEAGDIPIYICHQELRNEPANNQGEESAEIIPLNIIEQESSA
T1 sequence (O60896 24-148 partner): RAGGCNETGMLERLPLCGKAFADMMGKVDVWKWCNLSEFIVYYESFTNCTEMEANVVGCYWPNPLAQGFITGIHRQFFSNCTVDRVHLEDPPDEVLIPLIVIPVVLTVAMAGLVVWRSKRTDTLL
Excerpt: (§1) 1. Luciferase Assay Outline
(§2) Activation of calcitonin and amylin (coexpression of calcitonin receptor and receptor activity modifying proteins (RAMP)) receptors lead to increased intracellular concentrations of cAMP. Consequently, transcription is activated by promoters containing multiple copies of the cAMP response element (CRE). It is thus possible to measure amylin activity by the use of a CRE luciferase reporter gene introduced into BHK cells also expressing calcitonin or amylin receptors.
(§3) A BHK570 cell line was stably transfected with the human calcitonin receptor and a CRE-responsive luciferase reporter gene. The cell line was further transfected with RAMP-3, using standard methods. This turns the calcitonin receptor into an amylin 3(a) receptor. Methotrexate, Neomycin, and Hygromycin are selection markers for luciferase, the calcitonin receptor, and RAMP-3, respectively.
(§4) To perform activity assays, BHK calcitonin (a) receptor- or amylin 3(a)-receptor/CRE-luc cells were seeded in white 96 well culture plates at a density of about 20.000 cells/well. […] Further, 50 μl/well of standard or sample in assay buffer were added. After 3 hours incubation at 37° C. and 5% CO2, the assay medium with standard or sample were removed and replaced by 100 μl/well PBS. Further, 100 μl/well LucLite™ was added. The plates were sealed and incubated at room temperature for 30 minutes. Finally, luminescence was measured on a TopCounter (Packard) in SPC (single photon counting) mode.

[2] = biological target: T2, human calcitonin receptor (Homo sapiens, UniProt P30988); assay: Assay (II)a functional CRE-luciferase assay, human calcitonin receptor; format: cell-based
T2 construct: expressed in transfected cells; host or cells: BHK570
T2 sequence (P30988 25-474): T1 sequence (P30988 25-474)
Excerpt: as §1, §2, §3, §4

[3] = Assay (IV) determination of solubility; format: physicochemical
Summary of the method: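 Solubility was profiled across pH 3.0–8.0 after 18 hours at room temperature: a ~500 nmol/ml aqueous polypeptide solution was diluted 1:1 into 100 mM glycylglycine or bistrispropane buffers. After centrifugation, HPLC gave the dissolved concentration.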

[4] = Table 7, human calcitonin (CTa) receptor

Structure (SMILES): CC[C@H](C)[C@H](NC(=O)[C@@H]1CCCN1C(=O)CNC(=O)[C@H](Cc1ccccc1)NC(=O)[C@H](CC(N)=O)NC(=O)[C@H](CC(N)=O)NC(=O)[C@H](CO)NC(=O)[C@H](CO)NC(=O)[C@H](CCCNC(=N)N)NC(=O)[C@H](Cc1c[nH]cn1)NC(=O)[C@H](CC(C)C)NC(=O)[C@H](Cc1ccccc1)NC(=O)[C@H](CCC(=O)O)NC(=O)[C@H](C)NC(=O)[C@H](CC(C)C)NC(=O)[C@H](CCCNC(=N)N)NC(=O)[C@H](CCC(N)=O)NC(=O)[C@@H](NC(=O)[C@H](CCC(=O)O)NC(=O)[C@@H]1CSSC[C@H](NC(=O)[C@H](Cc2c[nH]cn2)NC(=O)CC[C@H](NC(=O)CCCCCCCCCCCCCCCCCCC(=O)O)C(=O)O)C(=O)N[C@@H](CC(N)=O)C(=O)N[C@@H]([C@@H](C)O)C(=O)N[C@@H](C)C(=O)N[C@@H]([C@@H](C)O)C(=O)N1)[C@@H](C)O)C(=O)N[C@@H](CC(C)C)C(=O)N1CCC[C@H]1C(=O)N1CCC[C@H]1C(=O)N[C@H](C(=O)N[C@@H](CC(N)=O)C(=O)N[C@H](C(=O)NCC(=O)N[C@@H](CO)C(=O)N[C@@H](CC(N)=O)C(=O)N[C@H](C(=O)N[C@@H](Cc1ccc(O)cc1)C(N)=O)[C@@H](C)O)C(C)C)[C@@H](C)O [Example 2, N-alpha-[(S)-4-Carboxy-4-(19-carboxynonadecanoylamino)butyryl]-[His1,Glu8,Glu14,His17,Arg18]-pramlintide] ({C20 diacid-γGlu}-HCNTATCETQRLAEFLHRSSNNFGPILPPTNVGSNTY-NH2; disulfide 2-7 (inferred))
- EC50 ([1]; Table 6, human amylin receptor): 0.602 nM
- EC50 ([2]; Table 11, read-out: CTa receptor human EC50): 4.3 nM

Structure (SMILES): CC[C@H](C)[C@H](NC(=O)[C@@H]1CCCN1C(=O)CNC(=O)[C@H](Cc1ccccc1)NC(=O)[C@H](CCC(N)=O)NC(=O)[C@H](CCC(N)=O)NC(=O)[C@H](CO)NC(=O)[C@H](CO)NC(=O)[C@H](CCCNC(=N)N)NC(=O)[C@H](Cc1c[nH]cn1)NC(=O)[C@H](CC(C)C)NC(=O)[C@H](Cc1ccccc1)NC(=O)[C@H](CCC(=O)O)NC(=O)[C@H](C)NC(=O)[C@H](CC(C)C)NC(=O)[C@H](CCCNC(=N)N)NC(=O)[C@H](CCC(N)=O)NC(=O)[C@@H](NC(=O)[C@H](C)NC(=O)[C@@H]1CSSC[C@H](NC(=O)CC[C@H](NC(=O)CCCCCCCCCCCCCCCCCCC(=O)O)C(=O)O)C(=O)NCC(=O)N[C@@H]([C@@H](C)O)C(=O)N[C@@H](C)C(=O)N[C@@H]([C@@H](C)O)C(=O)N1)[C@@H](C)O)C(=O)N[C@@H](CC(C)C)C(=O)N1CCC[C@H]1C(=O)N1CCC[C@H]1C(=O)N[C@H](C(=O)N[C@@H](CCC(=O)O)C(=O)N[C@H](C(=O)NCC(=O)N[C@@H](CO)C(=O)NCC(=O)N[C@H](C(=O)N[C@@H](Cc1ccc(O)cc1)C(N)=O)[C@@H](C)O)C(C)C)[C@@H](C)O [Example 4, N-alpha-[(S)-4-Carboxy-4-(19-carboxynonadecanoylamino)butyryl]-[des1,Gly3,Glu14,His17,Arg18,Gln21,Gln22,Glu31,Gly35]-pramlintide] ({C20 diacid-γGlu}-CGTATCATQRLAEFLHRSSQQFGPILPPTEVGSGTY-NH2; disulfide 1-6 (inferred))
- EC50 ([1]; Table 2, BHK amylin 3(a)-receptor/CRE-luc cells): 0.253 nM
- EC50 [2, 4]: 0.284 nM
- solubility at 18 h ([3]; bistrispropane buffer, pH 6, pH 6.0, read-out: Solubility pH 6.0): 42 µM (≈ 180 µg/mL)
- solubility at 18 h ([3]; bistrispropane buffer, pH 6.5, pH 6.5, read-out: Solubility pH 6.5): 82 µM (≈ 351 µg/mL)
- solubility at 18 h ([3]; bistrispropane buffer, pH 7, pH 7.0, 18 hours at room temperature, Table 3, read-out: Solubility pH 7.0): 146 µM (≈ 624 µg/mL)
- solubility at 18 h ([3]; bistrispropane buffer, pH 7, pH 7.0, read-out: Solubility pH 7.0): 146 µM (≈ 624 µg/mL)
- solubility at 18 h ([3]; bistrispropane buffer, pH 7.5, pH 7.5, read-out: Solubility pH 7.5): 183 µM (≈ 782 µg/mL)
- solubility at 18 h ([3]; bistrispropane buffer, pH 8, pH 8.0, read-out: Solubility pH 8.0): 190 µM (≈ 812 µg/mL)
- solubility at 18 h ([3]; glycylglycine buffer, pH 3, pH 3.0, read-out: Solubility pH 3.0): > 200 µM
- solubility at 18 h ([3]; glycylglycine buffer, pH 4, pH 4.0, 18 hours at room temperature, Table 2, read-out: Solubility pH 4.0): 120 µM (≈ 513 µg/mL)
- solubility at 18 h ([3]; glycylglycine buffer, pH 4, pH 4.0, read-out: Solubility pH 4.0): 120 µM (≈ 513 µg/mL)

Structure (SMILES): CC[C@H](C)[C@H](NC(=O)[C@@H]1CCCN1C(=O)CNC(=O)[C@H](Cc1ccccc1)NC(=O)[C@H](CC(N)=O)NC(=O)[C@H](CC(N)=O)NC(=O)[C@H](CO)NC(=O)[C@H](CO)NC(=O)[C@H](Cc1c[nH]cn1)NC(=O)[C@H](CCCNC(=N)N)NC(=O)[C@H](CC(C)C)NC(=O)[C@H](Cc1ccccc1)NC(=O)[C@H](CCCNC(=N)N)NC(=O)[C@H](C)NC(=O)[C@H](CC(C)C)NC(=O)[C@H](CCCNC(=N)N)NC(=O)[C@H](CCC(N)=O)NC(=O)[C@@H](NC(=O)[C@H](C)NC(=O)[C@@H]1CSSC[C@H](NC(=O)[C@H](CCCCN)NC(=O)CC[C@H](NC(=O)CCCCCCCCCCCCCCCCCCC(=O)O)C(=O)O)C(=O)N[C@@H](CC(N)=O)C(=O)N[C@@H]([C@@H](C)O)C(=O)N[C@@H](C)C(=O)N[C@@H]([C@@H](C)O)C(=O)N1)[C@@H](C)O)C(=O)N[C@@H](CC(C)C)C(=O)N1CCC[C@H]1C(=O)N1CCC[C@H]1C(=O)N[C@H](C(=O)N[C@@H](CC(N)=O)C(=O)N[C@H](C(=O)NCC(=O)N[C@@H](CO)C(=O)N[C@@H](CC(N)=O)C(=O)N[C@H](C(=O)N1CCC[C@H]1C(N)=O)[C@@H](C)O)C(C)C)[C@@H](C)O [Example 152, N-alpha-[(S)-4-Carboxy-4-(19-carboxynonadecanoylamino)butyryl]-[Arg14,Arg17,Pro37]-pramlintide] ({C20 diacid-γGlu}-KCNTATCATQRLARFLRHSSNNFGPILPPTNVGSNTP-NH2; disulfide 2-7 (inferred); C-terminus assumed)
- EC50 ([1]; Table 7, human amylin receptor): 0.129 nM
- EC50 [2, 4]: 0.453 nM

Structure (SMILES): CC[C@H](C)[C@H](NC(=O)[C@@H]1CCCN1C(=O)CNC(=O)[C@H](Cc1ccccc1)NC(=O)[C@H](CC(N)=O)NC(=O)[C@H](CC(N)=O)NC(=O)[C@H](CO)NC(=O)[C@H](CO)NC(=O)[C@H](Cc1c[nH]cn1)NC(=O)[C@H](CCCNC(=N)N)NC(=O)[C@H](CC(C)C)NC(=O)[C@H](Cc1ccccc1)NC(=O)[C@H](CCC(=O)O)NC(=O)[C@H](C)NC(=O)[C@H](CC(C)C)NC(=O)[C@H](CCCNC(=N)N)NC(=O)[C@H](CCC(N)=O)NC(=O)[C@@H](NC(=O)[C@H](C)NC(=O)[C@@H]1CSSC[C@H](NC(=O)[C@H](CCCNC(=N)N)NC(=O)CNC(=O)CC[C@H](NC(=O)CCCCCCCCCCCCCCCCCCC(=O)O)C(=O)O)C(=O)N[C@@H](CC(N)=O)C(=O)N[C@@H]([C@@H](C)O)C(=O)N[C@@H](C)C(=O)N[C@@H]([C@@H](C)O)C(=O)N1)[C@@H](C)O)C(=O)N[C@@H](CC(C)C)C(=O)N1CCC[C@H]1C(=O)N1CCC[C@H]1C(=O)N[C@H](C(=O)N[C@@H](CC(N)=O)C(=O)N[C@H](C(=O)NCC(=O)N[C@@H](CO)C(=O)N[C@@H](CC(N)=O)C(=O)N[C@H](C(=O)N1CCC[C@H]1C(N)=O)[C@@H](C)O)C(C)C)[C@@H](C)O [Example 153, N-alpha-[(S)-4-Carboxy-4-(19-carboxynonadecanoylamino)butyryl]-Gly-[Arg1,Glu14,Arg17,Pro37]-pramlintide] ({C20 diacid-γGlu}-GRCNTATCATQRLAEFLRHSSNNFGPILPPTNVGSNTP-NH2; disulfide 3-8 (inferred))
- EC50 ([1]; Table 6, human amylin receptor): 0.043 nM
- EC50 [2, 4]: 0.041 nM

From patent publication US8722849B2, “Polypeptides” (Novo Nordisk A/S, priority 2011, dated 2014)
